Assay results as given in patent US20130190275A1, “COMBINED THERAPIES OF ANTIPSYCHOTIC DRUGS AND TETRACYCLINES IN THE TREATMENT OF PSYCHIATRIC DISORDERS” (MOR RESEARCH APPLICATIONS LTD., priority 2006, published 2013).

Tests used:
MK801 treated rats [1] = experiment: Morris Water Maze (MWM) task, MK801 animal model of schizophrenia; format: in vivo, rat
Procedure: Morris Water Maze (MWM): The MWM consisted of a water pool (diameter=1.8 m; depth=0.6 m) containing water at 26±1° C. A hidden platform was located 1.5 cm below the water surface. Within the testing room, only distal visuo-spatial cues were available to the rats for location of the submerged platform. A video camera was placed above the center of the pool for tracking the rat, and a video tracking system (Noldus Information Technology b.v., Wageninpen, The Netherlands) with online digital output, directly fed data into a computer and analyzed. Data were analyzed by using an Etho-Vision automated tracking system (Noldus Information Technology).
(§1) Fifteen minutes before the behavioral procedures conducted at the fourth day, the subject was injected i.p. with an 0.1 mg/kg dose of MK801 or saline, for a total volume of 1 ml per kg of body weight. Next, the subjects passed the three behavioral procedures, described in the following paragraphs.
The MWM, a hippocampal-dependent visuo-spatial learning task, was used to assess the subjects' spatial learning/memory. The ability of an animal to locate a hidden platform submerged under water by using extra-maze cues from the test environment was examined. The rats were trained in a pool 1.8 m in diameter and 0.6 m high, containing water at 26±1° C. A 10 cm square transparent platform was hidden in a constant position in the pool submerged 1 cm below the water level. Within the testing room only distal visuo-spatial cues were available to the rats for location of the submerged platform.
Rats were given four trials per day, to find the hidden platform (acquisition phase). The escape latency, i.e., the time required by the rat to find and climb onto the platform, was recorded for up to 120 sec. Each rat was allowed to remain on the platform for 30 sec, and was then removed to its home cage.
Morris Water Maze (MWM): Escape latency, the time between placing the rat in the pool until it located the platform, was measured during behavioral testing. The escape latency was analyzed by means of […] repeated measures analysis of variance (ANOVA) with a between-subjects measure of ‘group’ (treatment group) and a within-subjects measure of ‘trail’ (effects amongst groups in the four different trials).
The MWM test was then performed (see FIG. 1 for results). A significant main effect of ‘group’, ‘trail’ and a significant ‘group’×‘trails’ interaction was found in the repeated measured ANOVA for the MWM task [F(5,35)=9.699, p<0.001; F(3,33)=31.551, p<0.001; F(15,91)=1.824, p<0.05; respectively].

[2] = test system: patients who experience first psychotic episode; experiment: GRAF score, adjuvant study; format: in vivo, human; settings: atypical antipsychotic drug+minocycline 200 mg/day vs +placebo; group x time p<0.05
Procedure: The study was carried out in patients who experience first psychotic episode, and has followed the patient for a total duration of 6 months. As the study examines Minocycline as an adjuvant drug, the sample includes patients receiving one of the following atypical anti-psychotic drugs: Risperdal, Zyprexa, Geodon, Seroquel, and Leponex. […] Initial evaluation included the following clinical measures: • SCID (for reliability of diagnosis) • CGI (Clinical Global Impression) • PANSS (Positive and Negative Syndrome Scale for Schizophrenia) • SANS (Scale for the Assessment of Negative Symptoms) • Calgary Depression Scale for Schizophrenia • GAF • GRAF • Insight and Treatment Attitudes Questionnaire • QLS (Quality of Life Scale) • Multinomah Community Ability Scale • Extrapyramidal Side Effects Scale. Minocycline was given as an add-on therapy. […] Clinical status was evaluated by the aforementioned scales at the onset of the study, every week for the first 6 weeks, and then once a month for the rest of the study period. Cognitive capabilities were assessed by the neuropsychological battery of tests according to the following schedule: upon initiation of the study (referred to as visit 1 in FIGS. 5-8), 3 months (referred to as visit 2 in FIGS. 5-8), and 6 months (referred to as visit 3 in FIGS. 5-8) after the start of the study. […]

MK801 treated rats [3] = experiment: Habituation of the Acoustic Startle Response (ASR), MK801 animal model; format: in vivo, rat
Procedure: Acoustic Startle Response (ASR) and Pre-Pulse Inhibition (PPI): Both experimental paradigms were performed in a room that was adjacent to the laboratory facilities and the animal stall and that was not used for other experiments. The animals were tested in squad of two with startle chambers counterbalanced across the different experimental groups. Startle response and prepulse inhibition were measured using two ventilated startle chambers (SR-LAB system, San Diego Instruments, San Diego, Calif.). Each chamber consisted of a Plexiglas cylinder resting on a platform inside a sound-attenuated, ventilated chamber. A high-frequency loudspeaker inside the chamber produced both a continuous broadband background noise of 70 dB and the various acoustic stimuli. Movement inside the tube was detected by a piezoelectric accelerometer below the frame. The amplitude of the whole body startle to an acoustic pulse was defined as the average of 100 one-msec accelerometer readings collected from pulse onset. These signals were then digitized and stored by a computer. Sound levels within each test chamber were measured routinely using a sound level meter (Radio Shack) to ensure consistent presentation. The SR-LAB calibration unit was used routinely to ensure consistent stabilimeter sensitivity between test chambers and over time (Swerdlow and Geyer, 1998, Schizophrenia Bulletin, 24(2), 285-301).
as §1
ASR and PPI were measured using two startle chambers, with each chamber consisting of a Plexiglas cylinder resting on a platform inside a sound-attenuated, ventilated chamber (see also materials section). The animals were tested in pairs with startle chambers counterbalanced across the different experimental groups.
The ASR test measured the ability of the animal to habituate to repetitive loud pulses of noise. […] Movement inside the tube was detected by a piezoelectric accelerometer below the frame. The amplitude of the whole body startle to an acoustic pulse was defined as the average of 100 one-msec accelerometer readings collected from pulse onset. […]
Acoustic Startle Response (ASR): The decrease in ASR in the groups was calculated as the percent of amplitude decrease between the mean of the first five amplitude values and the mean of the last 25 amplitude values.
Percent habituation=100×[(average startle amplitude in Block 1)−(average startle amplitude in Block 5)/(average startle amplitude in Block 1)]. Results were analyzed by two-way ANOVA a between-subject measure of ‘group’ (treatment group).

CN(C)c1ccc(O)c2c1C[C@H]1C[C@H]3[C@H](N(C)C)C(O)=C(C(N)=O)C(=O)[C@@]3(O)C(O)=C1C2=O [minocycline] was tested. Which “escape latency, impairments induced by MK801” value (MK801 treated rats [1]; main procedure: minocycline 35 mg/kg x 3 days, MK801 0.1 mg/kg i.p.) did it give?
The value was “reduce the impairments induced by MK801”.

What about the “escape latency, trail 4” value (MK801 treated rats [1]; minocycline 35 mg/kg before MK801, vs MK801 group, p<0.05) of the same compound?
Its value is “significant difference when compared to the MK801 group”.

What about the “escape latency, improvement compared with haloperidol” value (MK801 treated rats [1]; minocycline 35 mg/kg+MK801 vs haloperidol 0.4 mg/kg+MK801) of the same compound?
Its value is “somewhat more significant than that caused by haloperidol”.

What about the “dose dependence of effect in the MWM task” value (MK801 treated rats [1]; minocycline 20, 25, 30, 35 mg/kg before MK801) of the same compound?
Its value is “good dose dependent effect”.

What about the escape latency (MK801 treated rats [1]; minocycline 20 and 25 mg/kg for three consecutive days before MK801, vs saline and MK801 groups) of the same compound?
The escape latency was “no significant differences with the MK801 treated rats”.

What about the escape latency (MK801 treated rats [1]; minocycline 30 and 35 mg/kg for three consecutive days before MK801, vs saline group) of the same compound?
Its escape latency is “did not differ from the saline treated group”.

What about the GRAF score [2] of the same compound?
Its GRAF score is “greater improvement of the GRAF score”.

And the “percent habituation of the startle response (% habituation)” value (MK801 treated rats [3]; drug alone (no MK801) vs saline treated animals)?
Its value is “no effect on habituation of ASR”.

And the “percent habituation of the startle response (% habituation)” value (MK801 treated rats [3]; drug+MK801 0.1 mg/kg i.p., minocycline 35 mg/kg x 3 days pretreatment, haloperidol 0.4 mg/kg i.p.)?
Its value is “able to prevent the deficits induced by MK801”.
